In brackets after ≈: the same amount, converted by molar mass.
Assays:
Staphylococcus aureus [1] = test: Antibacterial activity against Staphylococcus aureus ATCC 6538 cultured in MH medium assessed as reduction in bacterial growth incubated for 48 hrs by microbroth dilution method; type: functional; details: ATCC 6538, 48 h
Staphylococcus aureus [2] = test: Bactericidal activity against Staphylococcus aureus ATCC 6538 cultured in MH medium assessed as reduction in bacterial survival incubated for 48 hrs by microbroth dilution method; type: functional; details: ATCC 6538, 48 h
Staphylococcus aureus [3] = test: Antibacterial activity against methicillin resistant Staphylococcus aureus N315 cultured in MH medium assessed as reduction in bacterial growth incubated for 48 hrs by microbroth dilution method; type: functional; details: N315, 48 h
Staphylococcus aureus [4] = test: Bactericidal activity against methicillin resistant Staphylococcus aureus N315 cultured in MH medium assessed as reduction in bacterial survival incubated for 48 hrs by microbroth dilution method; type: functional; details: N315, 48 h
[5] = system: Staphylococcus epidermidis; test: Antibacterial activity against Staphylococcus epidermidis ATCC 14990 cultured in MH medium assessed as reduction in bacterial growth incubated for 48 hrs by microbroth dilution method; type: functional; details: ATCC 14990, 48 h
[6] = system: Staphylococcus epidermidis; test: Bactericidal activity against Staphylococcus epidermidis ATCC 14990 cultured in MH medium assessed as reduction in bacterial survival incubated for 48 hrs by microbroth dilution method; type: functional; details: ATCC 14990, 48 h
Enterococcus hirae [7] = test: Antibacterial activity against Enterococcus hirae ATCC 1052 cultured in BHI medium assessed as reduction in bacterial growth incubated for 48 hrs by microbroth dilution method; type: functional; details: ATCC 1052, 48 h
Enterococcus hirae [8] = test: Bactericidal activity against Enterococcus hirae ATCC 1052 cultured in BHI medium assessed as reduction in bacterial survival incubated for 48 hrs by microbroth dilution method; type: functional; details: ATCC 1052, 48 h
Bacillus spizizenii [9] = test: Antibacterial activity against Bacillus subtilis ATCC 6633 cultured in MH medium assessed as reduction in bacterial growth incubated for 48 hrs by microbroth dilution method; type: functional; details: ATCC 6633, 48 h
Bacillus spizizenii [10] = test: Bactericidal activity against Bacillus subtilis ATCC 6633 cultured in MH medium assessed as reduction in bacterial survival incubated for 48 hrs by microbroth dilution method; type: functional; details: ATCC 6633, 48 h
Escherichia coli [11] = test: Antibacterial activity against Escherichia coli ATCC 8739 cultured in MH medium assessed as reduction in bacterial growth incubated for 48 hrs by microbroth dilution method; type: functional; details: ATCC 8739, 48 h
Escherichia coli [12] = test: Bactericidal activity against Escherichia coli ATCC 8739 cultured in MH medium assessed as reduction in bacterial survival incubated for 48 hrs by microbroth dilution method; type: functional; details: ATCC 8739, 48 h
Pseudomonas aeruginosa [13] = test: Antibacterial activity against Pseudomonas aeruginosa ATCC 9027 cultured in MH medium assessed as reduction in bacterial growth incubated for 48 hrs by microbroth dilution method; type: functional; details: ATCC 9027, 48 h
Pseudomonas aeruginosa [14] = test: Bactericidal activity against Pseudomonas aeruginosa ATCC 9027 cultured in MH medium assessed as reduction in bacterial survival incubated for 48 hrs by microbroth dilution method; type: functional; details: ATCC 9027, 48 h
Proteus vulgaris [15] = test: Antibacterial activity against Proteus vulgaris NCTC 4635 cultured in MH medium assessed as reduction in bacterial growth incubated for 48 hrs by microbroth dilution method; type: functional; details: NCTC 4635, 48 h
Proteus vulgaris [16] = test: Bactericidal activity against Proteus vulgaris NCTC 4635 cultured in MH medium assessed as reduction in bacterial survival incubated for 48 hrs by microbroth dilution method; type: functional; details: NCTC 4635, 48 h
Staphylococcus aureus [17] = test: Antibacterial activity against methicillin resistant Staphylococcus aureus 6347 cultured in MH medium assessed as reduction in bacterial growth incubated for 48 hrs by microbroth dilution method; type: functional; details: Staphylococcus aureus, 6347, 48 h
Staphylococcus aureus [18] = test: Bactericidal activity against methicillin resistant Staphylococcus aureus 6347 cultured in MH medium assessed as reduction in bacterial survival incubated for 48 hrs by microbroth dilution method; type: functional; details: Staphylococcus aureus, 6347, 48 h
Streptococcus pneumoniae [19] = test: Antibacterial activity against Streptococcus pneumoniae cultured in MH medium assessed as reduction in bacterial growth incubated for 48 hrs by microbroth dilution method; type: functional
Streptococcus pneumoniae [20] = test: Bactericidal activity against Streptococcus pneumoniae cultured in MH medium assessed as reduction in bacterial survival incubated for 48 hrs by microbroth dilution method; type: functional
Serratia marcescens [21] = test: Antibacterial activity against Serratia marcescens ATCC 12795 cultured in MH medium assessed as reduction in bacterial growth incubated for 48 hrs by microbroth dilution method; type: functional; details: ATCC 12795, 48 h
Serratia marcescens [22] = test: Bactericidal activity against Serratia marcescens ATCC 12795 cultured in MH medium assessed as reduction in bacterial survival incubated for 48 hrs by microbroth dilution method; type: functional; details: ATCC 12795, 48 h
[23] = Lipophilicity, log k of the compound at 100 ug/ml by micellar electrokinetic chromatography; type: physicochemical
[24] = system: Staphylococcus epidermidis; test: Antibacterial activity against methicillin resistant Staphylococcus epidermidis ATCC 13199 cultured in MH medium assessed as reduction in bacterial growth incubated for 48 hrs by microbroth dilution method; type: functional; details: ATCC 13199, 48 h
[25] = system: Staphylococcus epidermidis; test: Bactericidal activity against methicillin resistant Staphylococcus epidermidis ATCC 13199 cultured in MH medium assessed as reduction in bacterial survival incubated for 48 hrs by microbroth dilution method; type: functional; details: ATCC 13199, 48 h
HEK293 [26] = test: Cytotoxicity against human HEK293 cells assessed as cell viability upto 20 uM incubated for 72 hrs by MTT assay; type: cell-based; details: hek293, 72 h
HEK293 [27] = test: Cytotoxicity against human HEK293 cells assessed as changes in cell morphology upto 20 uM incubated for 72 hrs by MTT assay; type: cell-based; details: hek293, 72 h

| SMILES | MIC (Staphylococcus aureus [1]) | MBC (Staphylococcus aureus [2]) | MIC (Staphylococcus aureus [3]) | MBC (Staphylococcus aureus [4]) | MIC [5] | MBC [6] | MIC (Enterococcus hirae [7]) | MIC (Bacillus spizizenii [9]) | MBC (Bacillus spizizenii [10]) | MIC (Escherichia coli [11]) | MBC (Escherichia coli [12]) | MIC (Pseudomonas aeruginosa [13]) | MBC (Pseudomonas aeruginosa [14]) | MIC (Proteus vulgaris [15]) | MBC (Proteus vulgaris [16]) | MIC (Staphylococcus aureus [17]) | MBC (Staphylococcus aureus [18]) | MIC (Streptococcus pneumoniae [19]) | MIC (Serratia marcescens [21]) | MBC (Serratia marcescens [22]) | further results |
| --- | --- | --- | --- | --- | --- | --- | --- | --- | --- | --- | --- | --- | --- | --- | --- | --- | --- | --- | --- | --- | --- |
| COc1c(N2C[C@@H]3CCCN[C@@H]3C2)c(F)cc2c(=O)c(C(=O)O)cn(C3CC3)c12 [MOXIFLOXACIN] | 0.125 µg/mL (≈ 0.311 µM) | 0.125 µg/mL (≈ 0.311 µM) | 0.125 µg/mL (≈ 0.311 µM) | 0.25 µg/mL (≈ 0.623 µM) | 0.063 µg/mL (≈ 0.157 µM) | 0.125 µg/mL (≈ 0.311 µM) | 16 µg/mL (≈ 39.9 µM) | 0.032 µg/mL (≈ 0.0797 µM) | 0.032 µg/mL (≈ 0.0797 µM) | 0.125 µg/mL (≈ 0.311 µM) | 0.25 µg/mL (≈ 0.623 µM) | 16 µg/mL (≈ 39.9 µM) | 16 µg/mL (≈ 39.9 µM) | 0.004 µg/mL (≈ 0.00996 µM) | 0.008 µg/mL (≈ 0.0199 µM) | 0.063 µg/mL (≈ 0.157 µM) | 0.063 µg/mL (≈ 0.157 µM) | 16 µg/mL (≈ 39.9 µM) | 0.25 µg/mL (≈ 0.623 µM) | 0.5 µg/mL (≈ 1.25 µM) | MBC (Enterococcus hirae [8]): 32 µg/mL (≈ 79.7 µM); MBC (Streptococcus pneumoniae [20]): 64 µg/mL (≈ 159 µM) |
| CC1=CC(C)=C(C(=O)O)C2=N[N+]3(CN12)[C@H](C)CN(c1c(F)c(N)c2c(=O)c(C(=O)O)cn(C4CC4)c2c1F)C[C@@H]3C.[Cl-] (some centres not stated) | 8 µg/mL | 16 µg/mL | 8 µg/mL | 8 µg/mL | 4 µg/mL | 16 µg/mL | > 512 µg/mL | 2 µg/mL | 2 µg/mL | 4 µg/mL | 4 µg/mL | 32 µg/mL | > 512 µg/mL | 1 µg/mL | 2 µg/mL | 4 µg/mL | 8 µg/mL | > 512 µg/mL | 32 µg/mL | 32 µg/mL | log K [23]: -0.2606; MIC [24]: 2 µg/mL; MBC [25]: 4 µg/mL; Activity (HEK293 [26]): Non-Toxic; Activity (HEK293 [27]): Non-Toxic |
| CCn1cc(C(=O)O)c(=O)c2cnc(N3CC[N+]4(CC3)CN3C(=N4)C(C(=O)O)=Cc4ccccc43)nc21.[Cl-] | 512 µg/mL | 512 µg/mL | 512 µg/mL | 512 µg/mL | 256 µg/mL | 256 µg/mL | > 512 µg/mL | 64 µg/mL | 64 µg/mL | 16 µg/mL | 16 µg/mL | 128 µg/mL | 128 µg/mL | 16 µg/mL | 16 µg/mL | 256 µg/mL | 256 µg/mL | > 512 µg/mL | 128 µg/mL | 128 µg/mL | log K [23]: -0.4434; MIC [24]: 8 µg/mL; MBC [25]: 16 µg/mL; Activity (HEK293 [26]): Non-Toxic; Activity (HEK293 [27]): Non-Toxic |
| CCn1cc(C(=O)O)c(=O)c2cc(F)c(N3CCNCC3)cc21 [NORFLOXACIN] | 0.25 µg/mL (≈ 0.783 µM) | 0.25 µg/mL (≈ 0.783 µM) | 1 µg/mL (≈ 3.13 µM) | 2 µg/mL (≈ 6.26 µM) | 0.5 µg/mL (≈ 1.57 µM) | 2 µg/mL (≈ 6.26 µM) | 64 µg/mL (≈ 200 µM) | 0.125 µg/mL (≈ 0.391 µM) | 0.125 µg/mL (≈ 0.391 µM) | 0.032 µg/mL (≈ 0.1 µM) | 0.063 µg/mL (≈ 0.197 µM) | 0.25 µg/mL (≈ 0.783 µM) | 0.25 µg/mL (≈ 0.783 µM) | 0.016 µg/mL (≈ 0.0501 µM) | 0.016 µg/mL (≈ 0.0501 µM) | 1 µg/mL (≈ 3.13 µM) | 1 µg/mL (≈ 3.13 µM) | 128 µg/mL (≈ 401 µM) | 0.25 µg/mL (≈ 0.783 µM) | 0.25 µg/mL (≈ 0.783 µM) | log K [23]: 0.1033; MBC (Enterococcus hirae [8]): 64 µg/mL (≈ 200 µM); MIC [24]: 0.125 µg/mL (≈ 0.391 µM); MBC [25]: 0.125 µg/mL (≈ 0.391 µM); MBC (Streptococcus pneumoniae [20]): > 512 µg/mL |
| C[C@@H]1CN(c2c(F)c(N)c3c(=O)c(C(=O)O)cn(C4CC4)c3c2F)C[C@H](C)N1 [SPARFLOXACIN] | 0.125 µg/mL (≈ 0.319 µM) | 0.25 µg/mL (≈ 0.637 µM) | 0.125 µg/mL (≈ 0.319 µM) | 0.125 µg/mL (≈ 0.319 µM) | 0.125 µg/mL (≈ 0.319 µM) | 0.125 µg/mL (≈ 0.319 µM) | 32 µg/mL (≈ 81.5 µM) | 0.063 µg/mL (≈ 0.161 µM) | 0.063 µg/mL (≈ 0.161 µM) | 0.016 µg/mL (≈ 0.0408 µM) | 0.032 µg/mL (≈ 0.0815 µM) | 0.125 µg/mL (≈ 0.319 µM) | 0.125 µg/mL (≈ 0.319 µM) | 0.004 µg/mL (≈ 0.0102 µM) | 0.008 µg/mL (≈ 0.0204 µM) | 0.063 µg/mL (≈ 0.161 µM) | 0.063 µg/mL (≈ 0.161 µM) | 0.25 µg/mL (≈ 0.637 µM) | 0.5 µg/mL (≈ 1.27 µM) | 1 µg/mL (≈ 2.55 µM) | log K [23]: 0.1161; MBC (Enterococcus hirae [8]): 32 µg/mL (≈ 81.5 µM); MIC [24]: 0.032 µg/mL (≈ 0.0815 µM); MBC [25]: 0.032 µg/mL (≈ 0.0815 µM); MBC (Streptococcus pneumoniae [20]): 128 µg/mL (≈ 326 µM) |

From ChEMBL document CHEMBL4396913, “Synthesis and biological evaluation of hybrid quinolone-based quaternary ammonium antibacterial agents” (Eur J Med Chem, 2019)
